US20070249670A1, “Glycogen Phosphorylase Inhibitor Compounds and Pharmaceutical Compositions Thereof” (SMITHKLINE BEECHAM CORPORATION, priority 2004, published 2007)

target: T1, human liver glycogen phosphorylase a (HLGPa) (Homo sapiens, UniProt P06737); assay: Human liver glycogen phosphorylase a enzymatic activity assay (coupled, fluorescent resorufin readout, with and without 10 mM glucose); type: biochemical; details: human liver glycogen phosphorylase a enzymatic activity assay
T1 construct: creating a full-length cDNA fused at the 5′ end to codons for methionine-glycine-alanine-histidine; 6xHis tag (leader Met-Gly-Ala-His6-Gly-Gly) (N); made in house; host or cells: E. coli (bacterial expression plasmid pTXK1007LTev)
T1 sequence (P06737 2-847 limits assumed): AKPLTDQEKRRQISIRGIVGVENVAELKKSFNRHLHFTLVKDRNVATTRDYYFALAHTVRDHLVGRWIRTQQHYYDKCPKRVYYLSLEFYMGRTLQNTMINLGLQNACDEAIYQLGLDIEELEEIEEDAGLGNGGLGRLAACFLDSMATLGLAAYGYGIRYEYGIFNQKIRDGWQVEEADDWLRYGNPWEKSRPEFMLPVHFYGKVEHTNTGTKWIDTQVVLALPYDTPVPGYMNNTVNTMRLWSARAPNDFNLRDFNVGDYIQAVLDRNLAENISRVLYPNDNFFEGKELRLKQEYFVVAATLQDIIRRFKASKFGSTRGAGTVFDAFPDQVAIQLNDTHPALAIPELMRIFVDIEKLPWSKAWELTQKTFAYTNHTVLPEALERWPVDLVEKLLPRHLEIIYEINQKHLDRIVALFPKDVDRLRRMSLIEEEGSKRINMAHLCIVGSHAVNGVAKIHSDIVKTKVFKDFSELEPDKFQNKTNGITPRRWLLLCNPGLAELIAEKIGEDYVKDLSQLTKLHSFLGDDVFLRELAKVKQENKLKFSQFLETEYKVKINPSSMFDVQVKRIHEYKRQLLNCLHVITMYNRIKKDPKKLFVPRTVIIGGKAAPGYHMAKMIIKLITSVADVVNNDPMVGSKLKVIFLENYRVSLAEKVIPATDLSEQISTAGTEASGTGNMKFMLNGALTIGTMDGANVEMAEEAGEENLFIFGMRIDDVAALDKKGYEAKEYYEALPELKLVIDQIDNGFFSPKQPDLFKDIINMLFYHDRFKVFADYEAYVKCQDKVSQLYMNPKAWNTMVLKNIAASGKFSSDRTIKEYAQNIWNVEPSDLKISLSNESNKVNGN

| Compound | IC50 [µM] |
| --- | --- |
| CC[C@H](C)[C@H](NC(=O)c1c(NC(=O)Nc2c(C)cccc2Cl)sc2c1CCCC2)C(=O)O [Example 128, N-{[2-({[(2-chloro-6-methylphenyl)amino]carbonyl}amino)-4,5,6,7-tetrahydro-1-benzothien-3-yl]carbonyl}-L-isoleucine] | 14.8 |
| CC[C@H](C)[C@H](NC(=O)c1c(NC(=O)Nc2c(Cl)cccc2Cl)sc2c1CCCC2)C(=O)O [Example 129, N-{[2-({[(2,6-dichlorophenyl)amino]carbonyl}amino)-4,5,6,7-tetrahydro-1-benzothien-3-yl]carbonyl}-L-isoleucine] | 7.97 |
| Cc1cccc(Cl)c1NC(=O)Nc1sc2c(c1C(=O)N[C@@H](CC(C)C)C(=O)O)CCCC2 [Example 130, N-{[2-({[(2-chloro-6-methylphenyl)amino]carbonyl}amino)-4,5,6,7-tetrahydro-1-benzothien-3-yl]carbonyl}-L-leucine] | 18 |
| CC(C)C[C@H](NC(=O)c1c(NC(=O)Nc2c(Cl)cccc2Cl)sc2c1CCCC2)C(=O)O [Example 131, N-{[2-({[(2,6-dichlorophenyl)amino]carbonyl}amino)-4,5,6,7-tetrahydro-1-benzothien-3-yl]carbonyl}-L-leucine] | 9.96 |
| Cc1cccc(C)c1NC(=O)Nc1sc2c(c1C(=O)N[C@@H](CC(=O)O)C(=O)O)CCCC2 [Example 132, N-{[2-({[(2,6-dimethylphenyl)amino]carbonyl}amino)-4,5,6,7-tetrahydro-1-benzothien-3-yl]carbonyl}-L-aspartic acid] | 5.25 |
| Cc1cc(C)c(NC(=O)Nc2sc3c(c2C(=O)N[C@@H](CC(=O)O)C(=O)O)CCCC3)c(C)c1 [Example 133, N-[(2-{[(mesitylamino)carbonyl]amino}-4,5,6,7-tetrahydro-1-benzothien-3-yl)carbonyl]-L-aspartic acid] | 2.38 |
| Cc1cccc(Cl)c1NC(=O)Nc1sc2c(c1C(=O)N[C@@H](CC(=O)O)C(=O)O)CCCC2 [Example 134, N-{[2-({[(2-chloro-6-methylphenyl)amino]carbonyl}amino)-4,5,6,7-tetrahydro-1-benzothien-3-yl]carbonyl}-L-aspartic acid] | 3.66 |
| Cc1cccc(C(C)C)c1NC(=O)Nc1sc2c(c1C(=O)N[C@@H](CC(=O)O)C(=O)O)CCCC2 [Example 135, N-{[2-({[(2-isopropyl-6-methylphenyl)amino]carbonyl}amino)-4,5,6,7-tetrahydro-1-benzothien-3-yl]carbonyl}-L-aspartic acid] | 17.9 |
| CCc1cccc(CC)c1NC(=O)Nc1sc2c(c1C(=O)N[C@@H](CC(=O)O)C(=O)O)CCCC2 [Example 136, N-{[2-({[(2,6-diethylphenyl)amino]carbonyl}amino)-4,5,6,7-tetrahydro-1-benzothien-3-yl]carbonyl}-L-aspartic acid] | 4.58 |
| O=C(O)C[C@H](NC(=O)c1c(NC(=O)Nc2c(Cl)cccc2Cl)sc2c1CCCC2)C(=O)O [Example 137, N-{[2-({[(2,6-dichlorophenyl)amino]carbonyl}amino)-4,5,6,7-tetrahydro-1-benzothien-3-yl]carbonyl}-L-aspartic acid] | 4.15 |
| Cc1cccc(C)c1NC(=O)Nc1sc2c(c1C(=O)N[C@H](C(=O)O)C1CCCCC1)CCCC2 [Example 138, (2S)-cyclohexyl({[2-({[(2,6-dimethylphenyl)amino]carbonyl}amino)-4,5,6,7-tetrahydro-1-benzothien-3-yl]carbonyl}amino)acetic acid] | 5.56 |
| Cc1cccc(Cl)c1NC(=O)Nc1sc2c(c1C(=O)N[C@H](C(=O)O)C1CCCCC1)CCCC2 [Example 139, (2S)-({[2-({[(2-chloro-6-methylphenyl)amino]carbonyl}amino)-4,5,6,7-tetrahydro-1-benzothien-3-yl]carbonyl}amino)(cyclohexyl)acetic acid] | 3.26 |
| O=C(Nc1sc2c(c1C(=O)N[C@H](C(=O)O)C1CCCCC1)CCCC2)Nc1c(Cl)cccc1Cl [Example 140, (2S)-cyclohexyl({[2-({[(2,6-dichlorophenyl)amino]carbonyl}amino)-4,5,6,7-tetrahydro-1-benzothien-3-yl]carbonyl}amino)acetic acid] | 5.5 |
| Cc1ccccc1NC(=O)Nc1sc2ccccc2c1C(=O)N[C@H](C(=O)O)C1CCCCC1 [Example 141, (2S)-cyclohexyl({[2-({[(2-methylphenyl)amino]carbonyl}amino)-1-benzothien-3-yl]carbonyl}amino)acetic acid] | 8.71 |
| Cc1cccc(Cl)c1NC(=O)Nc1sc2ccccc2c1C(=O)N[C@H](C(=O)O)C1CCCCC1 [Example 142, (2S)-({[2-({[(2-chloro-6-methylphenyl)amino]carbonyl}amino)-1-benzothien-3-yl]carbonyl}amino)(cyclohexyl)acetic acid] | 1.51 |
| Cc1ccccc1NC(=O)Nc1cc2ccccc2cc1C(=O)N[C@H](C(=O)O)C1CCCCC1 [Example 143, (2S)-cyclohexyl{[3-({[(2-methylphenyl)amino]carbonyl}amino)-2-naphthoyl]amino}acetic acid] | 30.3 |
| Cc1ccccc1NC(=O)Nc1cc2ccccc2cc1C(=O)N[C@@H](CC1CCCCC1)C(=O)O [Example 144, 3-cyclohexyl-N-{[3-({[(2-methylphenyl)amino]carbonyl}amino)-2-naphthalenyl]carbonyl}-L-alanine] | 16.8 |
| Cc1cccc(C)c1NC(=O)Nc1cc2ccccc2cc1C(=O)N[C@@H](CC1CCCCC1)C(=O)O [Example 145, 3-cyclohexyl-N-{[3-({[(2,6-dimethylphenyl)amino]carbonyl}amino)-2-naphthalenyl]carbonyl}-L-alanine] | 0.59 |
| O=C(Nc1cc2ccccc2cc1C(=O)N[C@@H](CC1CCCCC1)C(=O)O)Nc1c(Cl)cccc1Cl [Example 146, 3-cyclohexyl-N-{[3-({[(2,6-dichlorophenyl)amino]carbonyl}amino)-2-naphthalenyl]carbonyl}-L-alanine] | 0.54 |
| Cc1noc(C)c1NC(=O)Nc1cc2ccccc2cc1C(=O)N[C@@H](CC(=O)O)C(=O)O [Example 147, N-{[3-({[(3,5-dimethyl-4-isoxazolyl)amino]carbonyl}amino)-2-naphthalenyl]carbonyl}-L-aspartic acid] | 29.1 |
| O=C(O)C[C@H](NC(=O)c1cc2ccccc2cc1NC(=O)Nc1c(Cl)cccc1Cl)C(=O)O [Example 148, N-{[3-({[(2,6-dichlorophenyl)amino]carbonyl}amino)-2-naphthalenyl]carbonyl}-L-aspartic acid] | 0.23 |
| O=C(O)C[C@H](NC(=O)c1cc2ccccc2cc1NC(=O)Nc1c(F)cccc1F)C(=O)O [Example 149, N-{[3-({[(2,6-difluorophenyl)amino]carbonyl}amino)-2-naphthalenyl]carbonyl}-L-aspartic acid] | 5.02 |
| O=C(O)C[C@H](NC(=O)c1cc2ccccc2cc1NC(=O)Nc1ccccc1Cl)C(=O)O [Example 151, N-{[3-({[(2-chlorophenyl)amino]carbonyl}amino)-2-naphthalenyl]carbonyl}-L-aspartic acid] | 1.55 |
| O=C(Nc1cc2ccccc2cc1C(=O)N[C@H](C(=O)O)C1CCCCC1)Nc1c(F)cccc1F [Example 153, (2S)-cyclohexyl({[3-({[(2,6-difluorophenyl)amino]carbonyl}amino)-2-naphthalenyl]carbonyl}amino)ethanoic acid] | 4.85 |
| O=C(Cc1c(Cl)cccc1Cl)Nc1cc2ccccc2cc1C(=O)N[C@H](C(=O)O)C1CCCCC1 [Example 155, (2S)-cyclohexyl{[(3-{[(2,6-dichlorophenyl)acetyl]amino}-2-naphthalenyl)carbonyl]amino}ethanoic acid] | 6.8 |
| O=C(Nc1cc(Cl)ccc1C(=O)N[C@H](C(=O)O)C1CCCCC1)Nc1c(Cl)cccc1Cl [Example 156, (2S)({[4chloro2({[(2,6dichlorophenyl)amino]carbonyl}amino)phenyl]carbonyl}amino)(cyclohexyl)ethanoic acid] | 0.082 |
| Cc1cccc(C)c1NC(=O)Nc1cc(Cl)ccc1C(=O)N[C@H](C(=O)O)C1CCCCC1 [Example 157, (2S)-({[4-chloro-2-({[(2,6-dimethylphenyl)amino]carbonyl}amino)phenyl]carbonyl}amino)(cyclohexyl)ethanoic acid] | 0.242 |
| CCc1cccc(C)c1NC(=O)Nc1cc2ccccc2cc1C(=O)N[C@H](C(=O)O)C1CCCCC1 [Example 159, (2S)-cyclohexyl{[3-({[(2-ethyl-6-methylphenyl)amino]carbonyl}amino)-2-naphthoyl]amino}ethanoic acid] | 0.058 |
| O=C(Nc1cc2ccccc2cc1C(=O)N[C@H](C(=O)O)C1CCCCC1)Nc1c(Cl)cccc1C(F)(F)F [Example 160, (2S)-({3-[({[2-chloro-6-(trifluoromethyl)phenyl]amino}carbonyl)amino]-2-naphthoyl}amino)(cyclohexyl)ethanoic acid] | 0.068 |
